Measured values: publication PMC8214221, “Sequence determinants in the cathelicidin LL-37 that promote inflammation via presentation of RNA to scavenger receptors” (The Journal of Biological Chemistry, 2021)
Values after ≈ are worked out from the molar mass of the structure shown. Residues, ends and D or L forms follow the SMILES beside them.

Experiments:
[1] = tested on: normal human epidermal keratinocytes (NHEKs); test: LDH release cytotoxicity assay in keratinocytes; assay type: cell-based; conditions: minimal concentration giving 50% LDH release by NHEKs
Procedure, shortened: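 Normal human epidermal keratinocytes were exposed to LL-34 parent and alanine-substituted peptides. Cytotoxicity was read as LDH release in fresh culture supernatants after treatment, using a commercial kit, and reported as the minimal concentration showing toxicity.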

[2] = tested on: methicillin-resistant Staphylococcus aureus strain USA300; assay type: cell-based
Source text: Since LL-34 was the minimal truncation mutant of LL-37 that retained both antimicrobial and immune modulatory activity, we prepared a series of synthetic peptides with sequential substitutions of alanine at each amino acid position of the LL-34 parent peptide (Table 1). We compared the minimum inhibitory concentration (MIC) for the LL-34 parent peptide and the alanine mutants (LL-34 peptides—L1A and R34A) against methicillin-resistant Staphylococcus aureus strain USA300 (Fig. 1A). LL-34 peptides were incubated at concentrations of 0 to 100 μM with bacteria. The minimal concentration at which no growth was observed was noted after 18 h of incubation. […] Because of these changes in the MIC against S. aureus between the mutants, we investigated the effective toxicity profile of the peptides in normal human epidermal keratinocytes (NHEKs) by lactate dehydrogenase (LDH) release assay (Table 1). […] Most other peptides were cytotoxic at a minimal concentration of 10 μM, whereas LL-34—K15A was toxic at a concentration of 2.5 μM.
Methicillin-resistant S. aureus USA300 and methicillin-sensitive S. aureus SA113 (American Type Culture Collection 35556) were cultured in 3% tryptic soy broth overnight at 37 °C with shaking at 250 rpm. GAS M49 strain NZ131 was cultured in Todd Hewitt broth supplemented with 1% yeast extract overnight at 37 °C without shaking. E. coli R1 strain RS218 was cultured in LB broth overnight at 37 °C with shaking at 250 rpm. MIC values were determined using a round-bottom 96-well microdilution method with RPMI cell culture media (as a source of Ca^2+ and Mg^2+) supplemented with tryptic soy broth, Todd Hewitt broth/yeast extract, or LB to facilitate growth of the respective bacterial strains. Overnight bacterial cultures were subcultured into fresh broth and grown to midlate log phase indicated by an absorbance at 600 nm value between 0.8 and 1.0 for each bacterial strain. The absorbance was then normalized to provide a concentration of 1 × 10^7 colony-forming units/ml in RPMI medium. The LL-34 parent and alanine scan mutants were serially diluted into the 96-well microtiter plates containing prewarmed RPMI bacterial growth medium. A 10 μl aliquot of the midlate log phase bacteria was inoculated into the 96-well microtiter plates that contained 95 μl of RPMI medium with or without the LL-34 peptide dilutions and incubated for 16 to 18 h at […] with shaking at 200 rpm. Inhibition of growth was determined by measuring the absorbance at 600 nm readings of each well using a microplate reader (Infinite M200 Pro; Tecan). The MIC of each bacterial strain was determined by the lowest peptide concentration that inhibited more than 80% bacterial growth.

[3] = tested on: NHEKs, IL-6 secretion in response to U1 dsRNA; test: IL-6 secretion ELISA in NHEKs; assay type: cell-based, human; conditions: U1 dsRNA 2.5 μg/ml + peptide 2 μM, 18 h, n = 3
Protocol: Protein levels of human IL-6 were analyzed from cell supernatant with ELISA (n = 3). Corresponding MIC values of LL-34 peptides L1A–R34A against Staphylococcus aureus USA300 are shown in the heat map. B, human dermal endothelial cells (HDMECs) were treated with either U1 dsRNA (2.5 μg/ml) or a combination of U1 dsRNA (2.5 μg/ml) and LL-34 peptides (Pep 1–Pep 34 and Pep–parent LL-34) at 2 μM for 18 h. IL-6 ELISA results are shown (n = 3). Green bars denote loss of IL-6 protein secretion compared with parent control shown in red. C, helical wheel plot for LL-34. Amino acids with green circles denote specific residues where replacement with an alanine caused the loss of IL-6 secretion compared with parent LL-34 peptide in NHEKs cotreated with U1 dsRNA. D, in the helical wheel plot for LL-34, circled green amino acids indicate that a substitution caused a loss of vetting in HDMEC. E–H, NHEKs were treated with LL-34-parent peptide (LL-34-P), LL-34-F5A, LL-34-I24A, LL-34-F27A, and LL-34-L31A at 2 μM, either individually or in combination with U1 dsRNA (2.5 μg/ml) for 8 h. Gene expression of IL-6, IFNB1, TSLP, and CXCL10 was assessed with qRT-PCR. GAPDH was used as a reference gene (n = 3) (∗p < 0.05; ∗∗∗∗p < 0.0001). One way-ANOVA was used. IL-6, interleukin 6; LL-34, 34-amino acid peptide; MIC, minimum inhibitory concentration, ns, not significant.
We hypothesized that sequential replacement of each amino acid in LL-34 peptide with a neutral amino acid alanine might reveal the amino acid residues critical for its ability to induce inflammation in response to U1 dsRNA. First, we treated NHEKs and human dermal microvascular endothelial cells (HDMECs) with LL-34 parent peptide and each of the 34 mutants at 2 μM for 18 h and measured the secretion of interleukin 6 (IL-6) in the supernatant by ELISA (Fig. S1, A and B). […] We then treated both NHEKs and HDMECs with a combination of U1 dsRNA (2.5 μg/ml) and the LL-34 parent/mutant peptides at 2 μM for 18 h and measured IL-6 secretion (Fig. 1, A–C). […] A similar pattern of IL-6 release was observed when HDMECs were treated with the peptide library and U1 dsRNA (Fig. 1B).
Cell culture supernatant was frozen at −80 °C until use for analysis. ELISA was performed with sandwich ELISA kits (R&D Systems) and quantified on a Spectramax Absorbance reader (Molecular Biosystems). Data were analyzed with GraphPad.

Compound	Minimal cytotoxic concentration in NHEK (LD50) [1] [µM]	Antimicrobial potency against S. aureus USA300 compared with LL-34 parent peptide ([2]; MIC comparison with parent (MIC 25 μM), 18 h)	MIC against S. aureus USA300 ([2]; USA300, 18 h) [µM]	IL-6 protein secretion, cotreatment with U1 dsRNA, vs U1 dsRNA + LL-34 parent [3]
CC[C@H](C)[C@H](NC(=O)[C@H](CCCCN)NC(=O)[C@H](CCC(=O)O)NC(=O)[C@H](CCCCN)NC(=O)[C@H](CO)NC(=O)[C@H](CCCCN)NC(=O)[C@H](CCCNC(=N)N)NC(=O)[C@H](Cc1ccccc1)NC(=O)[C@H](Cc1ccccc1)NC(=O)[C@H](CC(=O)O)NC(=O)CNC(=O)[C@H](CC(C)C)NC(=O)[C@@H](N)CC(C)C)C(=O)NCC(=O)N[C@@H](CCCCN)C(=O)N[C@@H](CCC(=O)O)C(=O)N[C@@H](Cc1ccccc1)C(=O)N[C@@H](CCCCN)C(=O)N[C@@H](CCCNC(=N)N)C(=O)N[C@H](C(=O)N[C@H](C(=O)N[C@@H](CCC(N)=O)C(=O)N[C@@H](CCCNC(=N)N)C(=O)N[C@H](C(=O)N[C@@H](CCCCN)C(=O)N[C@@H](CC(=O)O)C(=O)N[C@@H](Cc1ccccc1)C(=O)N[C@@H](CC(C)C)C(=O)N[C@@H](CCCNC(=N)N)C(=O)N[C@@H](CC(N)=O)C(=O)N[C@@H](CC(C)C)C(=O)N[C@H](C(=O)N1CCC[C@H]1C(=O)N[C@@H](C)C(=O)O)C(C)C)[C@@H](C)CC)C(C)C)[C@@H](C)CC [LL-34—R34A] (H-LLGDFFRKSKEKIGKEFKRIVQRIKDFLRNLVPA-OH)	10	reduced MIC compared with the parent peptide	–	–
CC[C@H](C)[C@H](NC(=O)[C@H](CCCCN)NC(=O)[C@H](CCC(=O)O)NC(=O)[C@H](CCCCN)NC(=O)[C@H](CO)NC(=O)[C@H](CCCCN)NC(=O)[C@H](CCCNC(=N)N)NC(=O)[C@H](Cc1ccccc1)NC(=O)[C@H](Cc1ccccc1)NC(=O)[C@H](CC(=O)O)NC(=O)CNC(=O)[C@H](CC(C)C)NC(=O)[C@@H](N)CC(C)C)C(=O)NCC(=O)N[C@@H](CCCCN)C(=O)N[C@@H](CCC(=O)O)C(=O)N[C@@H](Cc1ccccc1)C(=O)N[C@@H](CCCCN)C(=O)N[C@@H](CCCNC(=N)N)C(=O)N[C@H](C(=O)N[C@H](C(=O)N[C@@H](CCC(N)=O)C(=O)N[C@@H](CCCNC(=N)N)C(=O)N[C@H](C(=O)N[C@@H](CCCCN)C(=O)N[C@@H](CC(=O)O)C(=O)N[C@@H](Cc1ccccc1)C(=O)N[C@@H](CC(C)C)C(=O)N[C@@H](CCCNC(=N)N)C(=O)N[C@@H](CC(N)=O)C(=O)N[C@@H](CC(C)C)C(=O)N[C@H](C(=O)N1CCC[C@H]1C(=O)N[C@@H](CCCNC(=N)N)C(=O)O)C(C)C)[C@@H](C)CC)C(C)C)[C@@H](C)CC [LL-34—parent] (H-LLGDFFRKSKEKIGKEFKRIVQRIKDFLRNLVPR-OH)	5	–	25 (≈ 104 µg/mL)	–
CC[C@H](C)[C@H](NC(=O)[C@H](CCCCN)NC(=O)[C@H](CCC(=O)O)NC(=O)[C@H](CCCCN)NC(=O)[C@H](CO)NC(=O)[C@H](CCCCN)NC(=O)[C@H](CCCNC(=N)N)NC(=O)[C@H](Cc1ccccc1)NC(=O)[C@H](Cc1ccccc1)NC(=O)[C@H](CC(=O)O)NC(=O)CNC(=O)[C@H](CC(C)C)NC(=O)[C@@H](N)CC(C)C)C(=O)NCC(=O)N[C@@H](CCCCN)C(=O)N[C@@H](CCC(=O)O)C(=O)N[C@@H](C)C(=O)N[C@@H](CCCCN)C(=O)N[C@@H](CCCNC(=N)N)C(=O)N[C@H](C(=O)N[C@H](C(=O)N[C@@H](CCC(N)=O)C(=O)N[C@@H](CCCNC(=N)N)C(=O)N[C@H](C(=O)N[C@@H](CCCCN)C(=O)N[C@@H](CC(=O)O)C(=O)N[C@@H](Cc1ccccc1)C(=O)N[C@@H](CC(C)C)C(=O)N[C@@H](CCCNC(=N)N)C(=O)N[C@@H](CC(N)=O)C(=O)N[C@@H](CC(C)C)C(=O)N[C@H](C(=O)N1CCC[C@H]1C(=O)N[C@@H](CCCNC(=N)N)C(=O)O)C(C)C)[C@@H](C)CC)C(C)C)[C@@H](C)CC [LL-34—F17A] (H-LLGDFFRKSKEKIGKEAKRIVQRIKDFLRNLVPR-OH)	5	–	–	reduced secretion of IL-6 protein
CC[C@H](C)[C@H](NC(=O)[C@H](CCCCN)NC(=O)[C@H](CCC(=O)O)NC(=O)[C@H](CCCCN)NC(=O)[C@H](CO)NC(=O)[C@H](CCCCN)NC(=O)[C@H](CCCNC(=N)N)NC(=O)[C@H](Cc1ccccc1)NC(=O)[C@H](Cc1ccccc1)NC(=O)[C@H](CC(=O)O)NC(=O)CNC(=O)[C@H](CC(C)C)NC(=O)[C@@H](N)CC(C)C)C(=O)NCC(=O)N[C@@H](CCCCN)C(=O)N[C@@H](CCC(=O)O)C(=O)N[C@@H](Cc1ccccc1)C(=O)N[C@@H](CCCCN)C(=O)N[C@@H](CCCNC(=N)N)C(=O)N[C@@H](C)C(=O)N[C@H](C(=O)N[C@@H](CCC(N)=O)C(=O)N[C@@H](CCCNC(=N)N)C(=O)N[C@H](C(=O)N[C@@H](CCCCN)C(=O)N[C@@H](CC(=O)O)C(=O)N[C@@H](Cc1ccccc1)C(=O)N[C@@H](CC(C)C)C(=O)N[C@@H](CCCNC(=N)N)C(=O)N[C@@H](CC(N)=O)C(=O)N[C@@H](CC(C)C)C(=O)N[C@H](C(=O)N1CCC[C@H]1C(=O)N[C@@H](CCCNC(=N)N)C(=O)O)C(C)C)[C@@H](C)CC)C(C)C [LL-34—I20A] (H-LLGDFFRKSKEKIGKEFKRAVQRIKDFLRNLVPR-OH)	5	–	–	reduced secretion of IL-6 protein
CC[C@H](C)[C@H](NC(=O)[C@H](C)NC(=O)[C@H](CCC(N)=O)NC(=O)[C@@H](NC(=O)[C@@H](NC(=O)[C@H](CCCNC(=N)N)NC(=O)[C@H](CCCCN)NC(=O)[C@H](Cc1ccccc1)NC(=O)[C@H](CCC(=O)O)NC(=O)[C@H](CCCCN)NC(=O)CNC(=O)[C@@H](NC(=O)[C@H](CCCCN)NC(=O)[C@H](CCC(=O)O)NC(=O)[C@H](CCCCN)NC(=O)[C@H](CO)NC(=O)[C@H](CCCCN)NC(=O)[C@H](CCCNC(=N)N)NC(=O)[C@H](Cc1ccccc1)NC(=O)[C@H](Cc1ccccc1)NC(=O)[C@H](CC(=O)O)NC(=O)CNC(=O)[C@H](CC(C)C)NC(=O)[C@@H](N)CC(C)C)[C@@H](C)CC)[C@@H](C)CC)C(C)C)C(=O)N[C@@H](CCCCN)C(=O)N[C@@H](CC(=O)O)C(=O)N[C@@H](Cc1ccccc1)C(=O)N[C@@H](CC(C)C)C(=O)N[C@@H](CCCNC(=N)N)C(=O)N[C@@H](CC(N)=O)C(=O)N[C@@H](CC(C)C)C(=O)N[C@H](C(=O)N1CCC[C@H]1C(=O)N[C@@H](CCCNC(=N)N)C(=O)O)C(C)C [LL-34—R23A] (H-LLGDFFRKSKEKIGKEFKRIVQAIKDFLRNLVPR-OH)	10	–	–	reduced secretion of IL-6 protein
